Data reported in ChEMBL document CHEMBL1201862, “PubChem BioAssay data set” (2004).
Activity calls are given as the source filed them. Rule as the data show it: actives have a measured IC50 and inactives only a lower limit.

Target: Envelope glycoprotein gp160 (Human immunodeficiency virus 1, UniProt Q6QLK5)
Assay: cell-free HIV fusion peptide-binding blockers – biochemical, uHTS, fluorescence dequenching, […] (AID 1986)

Envelope glycoprotein gp160, sequence (Q6QLK5 whole entry, the tested form may be a part): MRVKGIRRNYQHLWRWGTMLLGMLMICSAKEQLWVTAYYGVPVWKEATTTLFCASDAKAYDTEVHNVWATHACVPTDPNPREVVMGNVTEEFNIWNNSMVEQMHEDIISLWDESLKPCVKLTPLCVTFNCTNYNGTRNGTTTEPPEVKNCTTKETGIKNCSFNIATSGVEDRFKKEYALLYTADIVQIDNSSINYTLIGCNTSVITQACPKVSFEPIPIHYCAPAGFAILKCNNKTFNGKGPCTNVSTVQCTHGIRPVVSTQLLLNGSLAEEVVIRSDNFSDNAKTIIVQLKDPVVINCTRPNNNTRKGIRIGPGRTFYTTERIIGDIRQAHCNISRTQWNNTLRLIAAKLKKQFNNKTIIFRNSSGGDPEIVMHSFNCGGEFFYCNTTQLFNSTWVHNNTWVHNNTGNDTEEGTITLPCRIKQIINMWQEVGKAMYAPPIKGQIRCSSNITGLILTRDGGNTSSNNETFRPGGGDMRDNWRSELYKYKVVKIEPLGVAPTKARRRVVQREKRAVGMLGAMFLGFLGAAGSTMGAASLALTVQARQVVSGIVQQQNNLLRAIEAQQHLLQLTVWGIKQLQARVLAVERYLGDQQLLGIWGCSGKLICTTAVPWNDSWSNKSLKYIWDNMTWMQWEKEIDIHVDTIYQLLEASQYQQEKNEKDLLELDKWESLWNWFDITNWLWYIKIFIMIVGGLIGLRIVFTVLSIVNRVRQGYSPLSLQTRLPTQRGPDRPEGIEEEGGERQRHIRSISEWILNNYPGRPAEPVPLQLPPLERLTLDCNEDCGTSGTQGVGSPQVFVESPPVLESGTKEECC

**Q.** For O=S(=O)(Nc1nc(-c2sccc2Cl)cs1)c1cc(Cl)ccc1Cl, which IC50 is on record?
**A.** 8.21 µM (active)
